Laboratory results published in PubChem BioAssay (NCI).
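In this assay, cells in 96-well plates receive the compound at five concentrations for 48 hours. Endpoints are linearly interpolated between the surrounding concentrations. TGI: concentration producing complete growth inhibition.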

Legend:
Experiment in all cases: NCI tumour cell line growth inhibition, 48 h
PC-3 prostate = tested on: PC-3 prostate
MDA-N = tested on: MDA-N
A549 NSCLC = tested on: A549 NSCLC
TK-10 renal = tested on: TK-10 renal
MOLT-4 leukemia = tested on: MOLT-4 leukemia
NCI-H23 lung = tested on: NCI-H23 lung
OVCAR-3 ovarian = tested on: OVCAR-3 ovarian
ACHN renal = tested on: ACHN renal
OVCAR-8 ovarian = tested on: OVCAR-8 ovarian
OVCAR-4 ovarian = tested on: OVCAR-4 ovarian
SN12C renal = tested on: SN12C renal
BT-549 breast = tested on: BT-549 breast
SK-MEL-5 melanoma = tested on: SK-MEL-5 melanoma
HS 578T breast = tested on: HS 578T breast
NCI-H460 lung = tested on: NCI-H460 lung
M14 melanoma = tested on: M14 melanoma
SR leukemia = tested on: SR leukemia
SK-MEL-28 melanoma = tested on: SK-MEL-28 melanoma
K-562 leukemia = tested on: K-562 leukemia
NCI-H522 lung = tested on: NCI-H522 lung
U251 CNS = tested on: U251 CNS
HT29 colon = tested on: HT29 colon
SF-539 CNS = tested on: SF-539 CNS
NCI/ADR-RES ovarian = tested on: NCI/ADR-RES ovarian
MDA-MB-231 breast = tested on: MDA-MB-231 breast
MDA-MB-435 = tested on: MDA-MB-435
RPMI-8226 leukemia = tested on: RPMI-8226 leukemia
UACC-257 melanoma = tested on: UACC-257 melanoma
KM12 colon = tested on: KM12 colon
HL-60(TB) leukemia = tested on: HL-60(TB) leukemia
OVCAR-5 ovarian = tested on: OVCAR-5 ovarian
HOP-62 NSCLC = tested on: HOP-62 NSCLC
SF-295 CNS = tested on: SF-295 CNS
COLO 205 colon = tested on: COLO 205 colon
EKVX NSCLC = tested on: EKVX NSCLC
A498 renal = tested on: A498 renal
MALME-3M melanoma = tested on: MALME-3M melanoma
HOP-92 NSCLC = tested on: HOP-92 NSCLC
SK-MEL-2 melanoma = tested on: SK-MEL-2 melanoma
T-47D breast = tested on: T-47D breast
SW-620 colon = tested on: SW-620 colon
UACC-62 melanoma = tested on: UACC-62 melanoma
IGROV1 ovarian = tested on: IGROV1 ovarian
HCT-15 colon = tested on: HCT-15 colon
SK-OV-3 ovarian = tested on: SK-OV-3 ovarian
CAKI-1 renal = tested on: CAKI-1 renal
LOX IMVI melanoma = tested on: LOX IMVI melanoma
RXF 393 renal = tested on: RXF 393 renal
HCT-116 colon = tested on: HCT-116 colon
DU-145 prostate = tested on: DU-145 prostate
MCF7 breast = tested on: MCF7 breast
SNB-75 CNS = tested on: SNB-75 CNS
HCC-2998 colon = tested on: HCC-2998 colon
SF-268 CNS = tested on: SF-268 CNS
NCI-H226 lung = tested on: NCI-H226 lung
SNB-19 CNS = tested on: SNB-19 CNS
CCRF-CEM leukemia = tested on: CCRF-CEM leukemia
786-0 renal = tested on: 786-0 renal

Question: With `C=C1C(=O)OC2CC3(CO3)C3C(O)C(O)CC3(C)CC12` (stereo unspecified) as the molecule, how does the TGI (PC-3 prostate) read?
Answer: > 100 µM

Question: And the TGI (MDA-N)?
Answer: 81.6 µM

Question: And the TGI (A549 NSCLC)?
Answer: > 100 µM

Question: What about the TGI (TK-10 renal) of the same molecule?
Answer: > 100 µM

Question: What about the TGI (MOLT-4 leukemia) of the same molecule?
Answer: 46.7 µM

Question: What about the TGI (NCI-H23 lung) of the same molecule?
Answer: 47.9 µM

Question: And the TGI (OVCAR-3 ovarian)?
Answer: 55.6 µM

Question: And the TGI (ACHN renal)?
Answer: 35.5 µM

Question: What about the TGI (OVCAR-8 ovarian) of the same molecule?
Answer: 45.3 µM

Question: And the TGI (OVCAR-4 ovarian)?
Answer: > 100 µM

Question: And the TGI (SN12C renal)?
Answer: 68.1 µM

Question: And the TGI (BT-549 breast)?
Answer: 33.9 µM

Question: What about the TGI (SK-MEL-5 melanoma) of the same molecule?
Answer: 42 µM

Question: What about the TGI (HS 578T breast) of the same molecule?
Answer: > 100 µM

Question: What about the TGI (NCI-H460 lung) of the same molecule?
Answer: > 100 µM

Question: What about the TGI (M14 melanoma) of the same molecule?
Answer: 36.7 µM

Question: What about the TGI (SR leukemia) of the same molecule?
Answer: 87.4 µM

Question: What about the TGI (SK-MEL-28 melanoma) of the same molecule?
Answer: 34.8 µM

Question: And the TGI (K-562 leukemia)?
Answer: > 100 µM

Question: And the TGI (NCI-H522 lung)?
Answer: 27.9 µM

Question: And the TGI (U251 CNS)?
Answer: > 100 µM

Question: And the TGI (HT29 colon)?
Answer: > 100 µM

Question: What about the TGI (SF-539 CNS) of the same molecule?
Answer: 39.2 µM

Question: What about the TGI (NCI/ADR-RES ovarian) of the same molecule?
Answer: > 100 µM

Question: What about the TGI (MDA-MB-231 breast) of the same molecule?
Answer: 60.5 µM

Question: What about the TGI (MDA-MB-435) of the same molecule?
Answer: 83.1 µM

Question: What about the TGI (RPMI-8226 leukemia) of the same molecule?
Answer: > 100 µM

Question: And the TGI (UACC-257 melanoma)?
Answer: > 100 µM

Question: What about the TGI (KM12 colon) of the same molecule?
Answer: > 100 µM

Question: And the TGI (HL-60(TB) leukemia)?
Answer: 44.6 µM

Question: What about the TGI (OVCAR-5 ovarian) of the same molecule?
Answer: 71.7 µM

Question: And the TGI (HOP-62 NSCLC)?
Answer: > 100 µM

Question: And the TGI (SF-295 CNS)?
Answer: > 100 µM

Question: And the TGI (COLO 205 colon)?
Answer: 81.2 µM

Question: And the TGI (EKVX NSCLC)?
Answer: 37.2 µM

Question: And the TGI (A498 renal)?
Answer: 64.2 µM

Question: And the TGI (MALME-3M melanoma)?
Answer: 37.5 µM

Question: What about the TGI (HOP-92 NSCLC) of the same molecule?
Answer: 50.7 µM

Question: And the TGI (SK-MEL-2 melanoma)?
Answer: 38.4 µM

Question: What about the TGI (T-47D breast) of the same molecule?
Answer: > 100 µM

Question: And the TGI (SW-620 colon)?
Answer: 32.3 µM

Question: What about the TGI (UACC-62 melanoma) of the same molecule?
Answer: 38 µM

Question: What about the TGI (IGROV1 ovarian) of the same molecule?
Answer: > 100 µM

Question: What about the TGI (HCT-15 colon) of the same molecule?
Answer: 34.1 µM

Question: And the TGI (SK-OV-3 ovarian)?
Answer: > 100 µM

Question: And the TGI (CAKI-1 renal)?
Answer: 36.6 µM

Question: And the TGI (LOX IMVI melanoma)?
Answer: 23.5 µM

Question: And the TGI (RXF 393 renal)?
Answer: 31.9 µM

Question: And the TGI (HCT-116 colon)?
Answer: 38 µM

Question: And the TGI (DU-145 prostate)?
Answer: > 100 µM

Question: And the TGI (MCF7 breast)?
Answer: 62.1 µM

Question: What about the TGI (SNB-75 CNS) of the same molecule?
Answer: > 100 µM

Question: What about the TGI (HCC-2998 colon) of the same molecule?
Answer: 33.9 µM

Question: What about the TGI (SF-268 CNS) of the same molecule?
Answer: > 100 µM

Question: And the TGI (NCI-H226 lung)?
Answer: > 100 µM

Question: And the TGI (SNB-19 CNS)?
Answer: > 100 µM

Question: And the TGI (CCRF-CEM leukemia)?
Answer: 45.9 µM

Question: What about the TGI (786-0 renal) of the same molecule?
Answer: > 100 µM

Question: Which results are given for `O=c1c2cccnc2nc2ccc3c[nH][nH]c3c12`?
Answer: TGI (PC-3 prostate): > 10 µM; TGI (MDA-N): > 10 µM; TGI (A549 NSCLC): > 10 µM; TGI (TK-10 renal): > 10 µM; TGI (MOLT-4 leukemia): > 10 µM; TGI (NCI-H23 lung): > 10 µM; TGI (OVCAR-3 ovarian): > 10 µM; TGI (ACHN renal): > 10 µM; TGI (OVCAR-8 ovarian): > 10 µM; TGI (OVCAR-4 ovarian): > 10 µM; TGI (SN12C renal): > 10 µM; TGI (BT-549 breast): > 10 µM; TGI (SK-MEL-5 melanoma): > 10 µM; TGI (HS 578T breast): > 10 µM; TGI (NCI-H460 lung): > 10 µM; TGI (M14 melanoma): > 10 µM; TGI (SR leukemia): 9.14 µM; TGI (SK-MEL-28 melanoma): > 10 µM; TGI (K-562 leukemia): > 10 µM; TGI (NCI-H522 lung): > 10 µM; TGI (U251 CNS): > 10 µM; TGI (HT29 colon): > 10 µM; TGI (SF-539 CNS): > 10 µM; TGI (NCI/ADR-RES ovarian): > 10 µM; TGI (MDA-MB-231 breast): > 10 µM; TGI (MDA-MB-435): > 10 µM; TGI (RPMI-8226 leukemia): > 10 µM; TGI (UACC-257 melanoma): > 10 µM; TGI (KM12 colon): > 10 µM; TGI (HL-60(TB) leukemia): > 10 µM; TGI (OVCAR-5 ovarian): > 10 µM; TGI (HOP-62 NSCLC): > 10 µM; TGI (SF-295 CNS): > 10 µM; TGI (COLO 205 colon): > 10 µM; TGI (EKVX NSCLC): > 10 µM; TGI (A498 renal): > 10 µM; TGI (MALME-3M melanoma): > 10 µM; TGI (HOP-92 NSCLC): > 10 µM; TGI (SK-MEL-2 melanoma): > 10 µM; TGI (T-47D breast): > 10 µM; TGI (SW-620 colon): > 10 µM; TGI (UACC-62 melanoma): > 10 µM; TGI (IGROV1 ovarian): > 10 µM; TGI (HCT-15 colon): > 10 µM; TGI (SK-OV-3 ovarian): > 10 µM; TGI (CAKI-1 renal): > 10 µM; TGI (LOX IMVI melanoma): > 10 µM; TGI (RXF 393 renal): > 10 µM; TGI (HCT-116 colon): > 10 µM; TGI (DU-145 prostate): > 10 µM; TGI (MCF7 breast): > 10 µM; TGI (SNB-75 CNS): > 10 µM; TGI (HCC-2998 colon): > 10 µM; TGI (SF-268 CNS): > 10 µM; TGI (NCI-H226 lung): > 10 µM; TGI (SNB-19 CNS): > 10 µM; TGI (CCRF-CEM leukemia): > 10 µM; TGI (786-0 renal): > 10 µM
